Experimental data reported in paper PMC5564600 (Oncotarget, 2017).

Key:
Experiment in all cases: biochemical
Type in all cases: binding
[1] = target: T1, panel of 442 kinases (Homo sapiens, UniProt P08581, Y1235D); settings: kinase MET(Y1235D); for remaining activity at 1 µM: read-out: % of control at 1 µM
T1 construct: purchased Ambit Biosciences (scanMAXX KINOMEscan)

[2] = target: T2, panel of 442 kinases (Homo sapiens, UniProt P36888, R834Q); settings: kinase FLT3(R834Q); for remaining activity at 1 µM: read-out: % of control at 1 µM
T2 construct: purchased Ambit Biosciences (scanMAXX KINOMEscan)
T2 sequence (P36888 27-993 R834Q): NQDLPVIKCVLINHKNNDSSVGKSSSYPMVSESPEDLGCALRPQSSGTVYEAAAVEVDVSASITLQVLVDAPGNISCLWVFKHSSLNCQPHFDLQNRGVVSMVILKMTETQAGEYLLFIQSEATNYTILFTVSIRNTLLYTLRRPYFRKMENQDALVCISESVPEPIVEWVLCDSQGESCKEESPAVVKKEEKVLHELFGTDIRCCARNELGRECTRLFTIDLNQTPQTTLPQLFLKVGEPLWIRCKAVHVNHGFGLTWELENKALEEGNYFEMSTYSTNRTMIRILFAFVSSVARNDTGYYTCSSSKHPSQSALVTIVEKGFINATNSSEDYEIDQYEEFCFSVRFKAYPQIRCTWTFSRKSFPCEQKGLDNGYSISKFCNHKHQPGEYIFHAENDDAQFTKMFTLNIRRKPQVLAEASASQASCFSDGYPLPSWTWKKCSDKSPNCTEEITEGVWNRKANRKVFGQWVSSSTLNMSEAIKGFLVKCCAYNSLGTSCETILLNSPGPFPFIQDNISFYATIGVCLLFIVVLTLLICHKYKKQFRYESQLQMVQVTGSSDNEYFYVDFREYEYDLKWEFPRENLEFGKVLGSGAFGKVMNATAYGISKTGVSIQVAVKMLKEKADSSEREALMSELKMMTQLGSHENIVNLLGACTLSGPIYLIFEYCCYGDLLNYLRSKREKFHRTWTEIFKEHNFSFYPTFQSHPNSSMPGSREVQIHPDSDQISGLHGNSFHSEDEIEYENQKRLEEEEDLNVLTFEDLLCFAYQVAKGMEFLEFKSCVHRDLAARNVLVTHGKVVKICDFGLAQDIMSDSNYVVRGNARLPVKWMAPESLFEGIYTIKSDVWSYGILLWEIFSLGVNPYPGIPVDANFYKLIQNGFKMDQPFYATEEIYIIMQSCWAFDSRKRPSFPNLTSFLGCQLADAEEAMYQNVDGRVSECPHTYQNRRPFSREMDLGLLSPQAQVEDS

[3] = target: T3, panel of 442 kinases (Homo sapiens, UniProt P51955); settings: kinase NEK2; for remaining activity at 1 µM: read-out: % of control at 1 µM
T3 construct: purchased Ambit Biosciences (scanMAXX KINOMEscan)
T3 sequence (P51955 1-445): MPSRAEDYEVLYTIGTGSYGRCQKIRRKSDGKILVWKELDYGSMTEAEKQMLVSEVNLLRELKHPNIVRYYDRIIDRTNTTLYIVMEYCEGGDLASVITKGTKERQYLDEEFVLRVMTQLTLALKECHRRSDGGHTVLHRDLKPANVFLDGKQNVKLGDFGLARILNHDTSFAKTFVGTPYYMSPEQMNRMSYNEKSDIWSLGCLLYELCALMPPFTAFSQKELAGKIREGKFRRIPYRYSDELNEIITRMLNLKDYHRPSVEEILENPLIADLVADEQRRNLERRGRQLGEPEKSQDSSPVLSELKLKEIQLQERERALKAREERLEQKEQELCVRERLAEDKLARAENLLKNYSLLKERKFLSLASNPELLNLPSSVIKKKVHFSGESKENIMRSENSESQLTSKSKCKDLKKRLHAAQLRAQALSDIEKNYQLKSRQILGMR

[4] = target: T4, panel of 442 kinases (Homo sapiens, UniProt P68400); settings: CSNK2A1; for remaining activity at 1 µM: read-out: % of control at 1 µM
T4 construct: purchased Ambit Biosciences (scanMAXX KINOMEscan)
T4 sequence (P68400 whole entry): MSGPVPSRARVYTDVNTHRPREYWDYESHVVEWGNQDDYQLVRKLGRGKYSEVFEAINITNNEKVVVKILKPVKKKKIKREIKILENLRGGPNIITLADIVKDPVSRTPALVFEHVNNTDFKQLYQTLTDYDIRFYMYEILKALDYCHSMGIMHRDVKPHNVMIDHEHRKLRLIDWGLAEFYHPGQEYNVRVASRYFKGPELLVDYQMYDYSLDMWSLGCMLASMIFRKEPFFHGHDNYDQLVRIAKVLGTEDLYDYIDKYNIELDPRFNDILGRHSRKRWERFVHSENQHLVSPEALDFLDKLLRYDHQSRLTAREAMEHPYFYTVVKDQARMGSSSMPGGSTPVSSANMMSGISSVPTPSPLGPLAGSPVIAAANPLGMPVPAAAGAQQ

[5] = target: T5, panel of 442 kinases (Homo sapiens, UniProt Q04759); settings: kinase PRKCQ; for remaining activity at 1 µM: read-out: PRKCQ (% of control at 1 µM)
T5 construct: purchased Ambit Biosciences (scanMAXX KINOMEscan)
T5 sequence (Q04759 whole entry): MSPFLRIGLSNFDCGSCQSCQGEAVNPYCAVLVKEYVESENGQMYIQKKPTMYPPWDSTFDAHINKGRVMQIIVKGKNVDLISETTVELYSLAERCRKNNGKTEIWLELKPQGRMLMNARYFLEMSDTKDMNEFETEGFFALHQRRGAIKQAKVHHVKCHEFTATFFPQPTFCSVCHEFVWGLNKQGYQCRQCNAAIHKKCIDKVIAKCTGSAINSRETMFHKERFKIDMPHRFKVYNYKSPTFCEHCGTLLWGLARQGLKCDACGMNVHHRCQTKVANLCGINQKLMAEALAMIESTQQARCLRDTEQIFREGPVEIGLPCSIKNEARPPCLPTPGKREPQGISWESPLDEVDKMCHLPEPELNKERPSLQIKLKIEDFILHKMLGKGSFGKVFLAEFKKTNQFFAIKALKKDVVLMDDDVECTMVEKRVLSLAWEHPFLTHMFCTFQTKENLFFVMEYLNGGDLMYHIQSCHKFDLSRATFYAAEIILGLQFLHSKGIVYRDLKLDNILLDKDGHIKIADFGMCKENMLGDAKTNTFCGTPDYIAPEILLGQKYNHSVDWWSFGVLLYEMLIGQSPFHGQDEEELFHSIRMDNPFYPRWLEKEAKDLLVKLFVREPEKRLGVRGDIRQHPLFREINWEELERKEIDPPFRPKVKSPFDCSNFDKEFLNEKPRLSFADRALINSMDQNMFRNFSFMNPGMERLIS

[6] = target: T6, panel of 442 kinases (Homo sapiens, UniProt Q14164); settings: kinase IKK-epsilon; for remaining activity at 1 µM: read-out: % of control at 1 µM
T6 construct: purchased Ambit Biosciences (scanMAXX KINOMEscan)
T6 sequence (Q14164 1-716): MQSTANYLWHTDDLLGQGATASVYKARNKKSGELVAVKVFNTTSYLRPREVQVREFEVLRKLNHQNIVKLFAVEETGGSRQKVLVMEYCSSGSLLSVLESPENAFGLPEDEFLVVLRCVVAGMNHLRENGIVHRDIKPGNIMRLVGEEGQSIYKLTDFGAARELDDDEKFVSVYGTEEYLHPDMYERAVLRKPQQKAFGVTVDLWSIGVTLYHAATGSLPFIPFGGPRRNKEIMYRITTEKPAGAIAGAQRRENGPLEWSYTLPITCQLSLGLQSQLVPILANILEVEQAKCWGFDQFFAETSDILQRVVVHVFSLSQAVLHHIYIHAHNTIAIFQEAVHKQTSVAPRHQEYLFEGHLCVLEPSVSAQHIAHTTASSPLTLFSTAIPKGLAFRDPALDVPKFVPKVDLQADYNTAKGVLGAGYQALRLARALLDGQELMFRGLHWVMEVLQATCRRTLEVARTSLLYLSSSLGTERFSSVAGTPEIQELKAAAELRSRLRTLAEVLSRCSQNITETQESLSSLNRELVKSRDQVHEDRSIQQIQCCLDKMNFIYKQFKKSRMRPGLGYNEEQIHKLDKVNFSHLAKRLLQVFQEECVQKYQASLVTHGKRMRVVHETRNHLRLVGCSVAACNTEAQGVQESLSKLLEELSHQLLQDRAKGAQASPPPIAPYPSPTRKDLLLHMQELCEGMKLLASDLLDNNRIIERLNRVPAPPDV

[7] = target: T7, panel of 442 kinases (Homo sapiens, UniProt Q16512); settings: kinase PKN1; for remaining activity at 1 µM: read-out: PKN1 (% of control at 1 µM)
T7 construct: purchased Ambit Biosciences (scanMAXX KINOMEscan)
T7 sequence (Q16512 whole entry): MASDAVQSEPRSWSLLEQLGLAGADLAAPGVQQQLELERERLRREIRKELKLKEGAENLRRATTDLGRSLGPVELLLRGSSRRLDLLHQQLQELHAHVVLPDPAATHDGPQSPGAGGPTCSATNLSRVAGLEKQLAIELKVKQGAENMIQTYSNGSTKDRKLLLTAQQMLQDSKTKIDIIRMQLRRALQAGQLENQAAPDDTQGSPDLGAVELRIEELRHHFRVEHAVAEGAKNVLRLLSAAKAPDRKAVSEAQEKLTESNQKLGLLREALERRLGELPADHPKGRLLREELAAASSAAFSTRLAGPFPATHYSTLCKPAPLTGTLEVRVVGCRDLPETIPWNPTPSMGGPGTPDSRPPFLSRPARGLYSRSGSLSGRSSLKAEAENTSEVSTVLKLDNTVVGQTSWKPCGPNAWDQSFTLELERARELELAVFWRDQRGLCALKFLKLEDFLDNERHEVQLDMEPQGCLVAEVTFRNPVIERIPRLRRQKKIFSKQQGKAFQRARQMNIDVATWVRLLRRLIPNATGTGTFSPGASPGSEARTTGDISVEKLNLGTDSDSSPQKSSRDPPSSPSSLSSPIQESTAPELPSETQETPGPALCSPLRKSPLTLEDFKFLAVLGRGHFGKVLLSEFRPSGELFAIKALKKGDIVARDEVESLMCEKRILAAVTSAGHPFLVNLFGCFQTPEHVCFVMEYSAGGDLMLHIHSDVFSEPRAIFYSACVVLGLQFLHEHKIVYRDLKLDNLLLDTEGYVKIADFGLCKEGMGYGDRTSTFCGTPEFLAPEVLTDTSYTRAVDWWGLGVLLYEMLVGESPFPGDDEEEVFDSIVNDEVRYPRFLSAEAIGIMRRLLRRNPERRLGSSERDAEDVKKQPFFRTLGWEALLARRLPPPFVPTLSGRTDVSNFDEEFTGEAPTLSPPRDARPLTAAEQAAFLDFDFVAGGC

[8] = target: T8, panel of 442 kinases (Homo sapiens, UniProt Q8IY84); settings: kinase NIM1; for remaining activity at 1 µM: read-out: % of control at 1 µM
T8 construct: purchased Ambit Biosciences (scanMAXX KINOMEscan)
T8 sequence (Q8IY84 whole entry): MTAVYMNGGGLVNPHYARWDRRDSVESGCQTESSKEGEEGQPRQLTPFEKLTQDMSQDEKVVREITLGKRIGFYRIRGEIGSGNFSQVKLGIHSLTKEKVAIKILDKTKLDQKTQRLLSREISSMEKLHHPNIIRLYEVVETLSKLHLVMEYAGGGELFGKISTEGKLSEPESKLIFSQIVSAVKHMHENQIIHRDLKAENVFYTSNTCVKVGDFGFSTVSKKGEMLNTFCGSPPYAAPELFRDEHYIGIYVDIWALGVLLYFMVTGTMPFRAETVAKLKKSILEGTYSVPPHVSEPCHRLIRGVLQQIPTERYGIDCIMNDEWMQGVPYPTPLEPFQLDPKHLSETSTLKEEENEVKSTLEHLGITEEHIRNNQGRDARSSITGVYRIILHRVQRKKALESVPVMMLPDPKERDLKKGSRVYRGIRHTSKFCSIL

[9] = target: T9, panel of 442 kinases (Homo sapiens, UniProt Q96Q40); settings: kinase PFTAIRE2; for remaining activity at 1 µM: read-out: % of control at 1 µM
T9 construct: purchased Ambit Biosciences (scanMAXX KINOMEscan)
T9 sequence (Q96Q40 whole entry): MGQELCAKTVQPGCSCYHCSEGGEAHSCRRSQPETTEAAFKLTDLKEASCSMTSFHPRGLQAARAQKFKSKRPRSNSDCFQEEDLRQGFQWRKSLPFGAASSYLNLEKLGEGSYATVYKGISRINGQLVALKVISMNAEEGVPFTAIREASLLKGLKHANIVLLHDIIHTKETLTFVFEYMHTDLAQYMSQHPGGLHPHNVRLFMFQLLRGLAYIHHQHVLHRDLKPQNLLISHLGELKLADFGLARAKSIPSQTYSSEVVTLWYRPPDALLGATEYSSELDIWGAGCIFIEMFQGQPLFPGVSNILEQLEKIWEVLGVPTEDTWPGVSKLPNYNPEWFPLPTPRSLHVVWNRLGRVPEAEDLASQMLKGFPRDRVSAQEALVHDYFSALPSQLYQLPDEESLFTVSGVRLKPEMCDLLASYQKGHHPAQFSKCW

[10] = target: T10, panel of 442 kinases (Homo sapiens, UniProt Q9UPE1); settings: kinase SRPK3; for remaining activity at 1 µM: read-out: SRPK3 (% of control at 1 µM)
T10 construct: purchased Ambit Biosciences (scanMAXX KINOMEscan)
T10 sequence (Q9UPE1 whole entry): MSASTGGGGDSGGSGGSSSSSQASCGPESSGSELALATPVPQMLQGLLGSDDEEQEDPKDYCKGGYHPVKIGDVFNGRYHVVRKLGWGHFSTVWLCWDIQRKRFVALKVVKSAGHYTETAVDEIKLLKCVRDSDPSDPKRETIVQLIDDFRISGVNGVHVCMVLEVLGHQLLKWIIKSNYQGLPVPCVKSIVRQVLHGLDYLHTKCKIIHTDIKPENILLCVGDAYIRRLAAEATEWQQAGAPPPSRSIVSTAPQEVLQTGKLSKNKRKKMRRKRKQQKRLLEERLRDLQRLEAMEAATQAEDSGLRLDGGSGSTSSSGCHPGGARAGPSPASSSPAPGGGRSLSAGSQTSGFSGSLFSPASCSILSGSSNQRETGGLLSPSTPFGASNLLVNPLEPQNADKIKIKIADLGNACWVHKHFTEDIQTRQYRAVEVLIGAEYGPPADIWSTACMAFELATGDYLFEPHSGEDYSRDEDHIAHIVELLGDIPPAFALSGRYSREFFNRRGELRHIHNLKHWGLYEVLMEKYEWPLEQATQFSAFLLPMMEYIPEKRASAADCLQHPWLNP

[11] = 10 µM, read-out: % of control at 10 µM

T1 sequence (P08581 25-1390 Y1235D): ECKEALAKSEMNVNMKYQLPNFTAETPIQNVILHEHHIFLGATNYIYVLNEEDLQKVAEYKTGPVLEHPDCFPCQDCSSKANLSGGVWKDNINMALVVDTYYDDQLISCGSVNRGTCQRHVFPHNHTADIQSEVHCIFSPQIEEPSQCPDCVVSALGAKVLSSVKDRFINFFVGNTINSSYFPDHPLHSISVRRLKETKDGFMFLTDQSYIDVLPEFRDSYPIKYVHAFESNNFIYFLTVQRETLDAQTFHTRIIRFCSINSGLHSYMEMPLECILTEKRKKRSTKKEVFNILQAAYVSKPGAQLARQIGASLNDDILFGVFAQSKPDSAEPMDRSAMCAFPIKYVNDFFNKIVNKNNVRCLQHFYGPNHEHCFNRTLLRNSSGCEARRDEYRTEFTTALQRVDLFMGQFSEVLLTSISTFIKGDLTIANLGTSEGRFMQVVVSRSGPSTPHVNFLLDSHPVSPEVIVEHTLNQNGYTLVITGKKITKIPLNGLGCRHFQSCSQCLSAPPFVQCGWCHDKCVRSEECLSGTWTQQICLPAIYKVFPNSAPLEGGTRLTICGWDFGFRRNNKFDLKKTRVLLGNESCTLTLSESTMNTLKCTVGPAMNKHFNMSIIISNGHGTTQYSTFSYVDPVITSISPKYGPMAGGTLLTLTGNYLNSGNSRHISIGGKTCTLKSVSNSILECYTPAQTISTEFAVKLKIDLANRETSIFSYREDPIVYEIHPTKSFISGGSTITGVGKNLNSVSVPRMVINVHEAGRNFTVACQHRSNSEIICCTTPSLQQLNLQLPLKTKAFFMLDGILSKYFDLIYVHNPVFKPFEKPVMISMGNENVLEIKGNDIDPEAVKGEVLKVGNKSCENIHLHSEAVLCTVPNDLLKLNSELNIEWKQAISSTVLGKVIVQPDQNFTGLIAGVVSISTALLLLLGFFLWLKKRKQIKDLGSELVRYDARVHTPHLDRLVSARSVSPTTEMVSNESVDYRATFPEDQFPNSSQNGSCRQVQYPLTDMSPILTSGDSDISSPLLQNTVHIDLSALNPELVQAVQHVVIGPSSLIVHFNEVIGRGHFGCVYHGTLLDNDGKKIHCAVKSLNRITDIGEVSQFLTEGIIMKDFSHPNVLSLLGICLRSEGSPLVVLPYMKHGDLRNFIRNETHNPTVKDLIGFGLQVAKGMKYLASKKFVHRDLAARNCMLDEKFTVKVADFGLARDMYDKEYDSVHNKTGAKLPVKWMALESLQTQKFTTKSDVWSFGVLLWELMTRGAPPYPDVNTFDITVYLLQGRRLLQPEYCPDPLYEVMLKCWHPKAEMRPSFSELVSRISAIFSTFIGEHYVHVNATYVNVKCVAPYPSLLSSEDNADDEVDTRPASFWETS

## Nc1cc(C(F)(F)F)c(-c2cc(N3CCOCC3)nc(N3CCOCC3)n2)cn1 [Buparlisib]
[1]
  remaining activity at 1 µM: 100%
[1]; [11]
  remaining activity at 10 µM: 99%
[2]
  remaining activity at 1 µM: 100%
[2]; [11]
  remaining activity at 10 µM: 100%
[3]
  remaining activity at 1 µM: 84%
[3]; [11]
  remaining activity at 10 µM: 86%
[4]
  remaining activity at 1 µM: 91%
[4]; [11]
  remaining activity at 10 µM: 100%
[5]
  remaining activity at 1 µM: 91%
[5]; 10 µM, read-out: PRKCQ (% of control at 10 µM)
  remaining activity at 10 µM: 100%
[6]
  remaining activity at 1 µM: 78%
[6]; [11]
  remaining activity at 10 µM: 100%
[7]
  remaining activity at 1 µM: 89%
[7]; 10 µM, read-out: PKN1 (% of control at 10 µM)
  remaining activity at 10 µM: 100%
[8]
  remaining activity at 1 µM: 89%
[8]; [11]
  remaining activity at 10 µM: 86%
[9]
  remaining activity at 1 µM: 100%
[9]; [11]
  remaining activity at 10 µM: 100%
[10]
  remaining activity at 1 µM: 100%
[10]; 10 µM, read-out: SRPK3 (% of control at 10 µM)
  remaining activity at 10 µM: 100%

## Cn1c(=O)n(-c2ccc(C(C)(C)C#N)cc2)c2c3cc(-c4cnc5ccccc5c4)ccc3ncc21 [Dactolisib, 2-methyl-2-[4-(3-methyl-2-oxo-8-quinolin-3-yl-2,3-dihydroimidazo[4,5-c]quinolin-1-yl)-phenyl] propionitrile]
[3]
  remaining activity at 1 µM: 88%
[4]
  remaining activity at 1 µM: 64%
[5]
  remaining activity at 1 µM: 85%
[6]
  remaining activity at 1 µM: 100%
[7]
  remaining activity at 1 µM: 100%
[8]
  remaining activity at 1 µM: 100%
[9]
  remaining activity at 1 µM: 82%
[10]
  remaining activity at 1 µM: 91%

## COc1ncc(-c2ccc3nccc(-c4ccnnc4)c3c2)cc1NS(=O)(=O)c1ccc(F)cc1F [Omipalisib]
[1]
  remaining activity at 1 µM: 100%
[2]
  remaining activity at 1 µM: 100%
[3]
  remaining activity at 1 µM: 100%
[4]
  remaining activity at 1 µM: 100%
[5]
  remaining activity at 1 µM: 100%
[6]
  remaining activity at 1 µM: 100%
[7]
  remaining activity at 1 µM: 94%
[8]
  remaining activity at 1 µM: 100%
[9]
  remaining activity at 1 µM: 100%
[10]
  remaining activity at 1 µM: 100%

## FC(F)c1nc2ccccc2n1-c1nc(N2CCOCC2)nc(N2CCOCC2)n1 [ZSTK474, 2-(difluoromethyl)-1-[4,6-di(4-morpholinyl)-1,3,5-triazin-2-yl]-1H-benzimidazole]
[1]
  remaining activity at 1 µM: 92%
[2]
  remaining activity at 1 µM: 100%
[3]
  remaining activity at 1 µM: 87%
[4]
  remaining activity at 1 µM: 90%
[5]
  remaining activity at 1 µM: 98%
[6]
  remaining activity at 1 µM: 100%
[7]
  remaining activity at 1 µM: 90%
[8]
  remaining activity at 1 µM: 100%
[9]
  remaining activity at 1 µM: 83%
[10]
  remaining activity at 1 µM: 100%
